Here are results for 11 compounds from patent EP4644375A1, “SUBSTITUTED HYDROQUINOLINES FOR THE TREATMENT OF GLIOBLASTOMA MULTIFORME” (Molius Saglik Teknolojileri Anonim Sirketi, priority 2024, dated 2025).

The subject of assay [1] is U138-MG human glioma cell. Kind of assay: Cell proliferation analysis (MTT). The settings on record: 10 µM, two days, MTT; for activity at 10 µM / inhibition at 10 µM: Homo sapiens, 48 h. Format: cell-based. The procedure: (§1) U87-MG and U138-MG human glioma cell, were incubated with 10% fetal bovine serum (FBS) (Gibco, 10500-064), 1% L-glutamine (Gibco, 25030-024), in a humidified incubator with 5% CO2 at 37 °C. The cells were contained in DMEM High Glucose (Gibco, 41966-029) supplemented with 1% penicillin-streptomycin (P/S) (Gibco 15140-122) solution. The cytotoxic effects of the target compounds on U87-MG and U138-MG cell lines were assessed using the MTT (Thiazolyl Blue Tetrazolium Bromide) method. 7×10^3 cells were seeded into a 96-well plate in 100 µl DMEM High Glucose 10% FBS and 1% P/S. 24 hours after cell incubation, each target compound was added at a dose of 10 µM and the drug treatment was carried out for two days. After the incubation period, 10 µL of MTT solution was added to each well (5 mg/ml in PBS). After 2 hours, MTT solutions were removed from the wells. Then, 100 µl DMSO was added, and mixed to dissolve the formazan crystals. Cell proliferation was analysed by measuring the absorbance of dissolved formazan at a wavelength of 570 nm.
(§2) IC50 values were determined using the same method as above wherein the cells were treated with the target compounds at different doses.

The test system of assay [2] is U87-MG human glioma cell. Kind of assay: Cell proliferation analysis (MTT). Format: cell-based. The settings on record: 10 µM, two days, MTT; for activity at 10 µM / inhibition at 10 µM: Homo sapiens, U-87 MG, 48 h. As for the experimental part: as §1, §2

With `Cc1ccc(COc2ccc3c(c2)CCC(=O)N3)cc1` [TR-G041, 6-((4-methylbenzyl)oxy)-3,4-dihydroquinolin-2(1H)-one], the activity at 10 µM was found to be 74% in assay [1] and 70% in assay [2]. In addition, the values for the inhibition at 10 µM in assay [1] and in assay [2] were 26% and 30%, respectively.
Regarding `O=C(COc1ccc2c(c1)CCC(=O)N2)Nc1ccc2ncccc2c1` [TR-G089, 2-((2-oxo-1,23,4-tetrahydroquinolin-6-yl)oxy)-N-(quinolin-6-yl)acetamide], the activity at 10 µM in assay [1] and in assay [2] was 67% throughout. Also, the inhibition at 10 µM in assay [1] and in assay [2] was 33% throughout.
For the compound `CCCn1cc(COc2ccc3c(c2)CCC(=O)N3)nn1` [TR-G082, 6-((1-propyl-1H-1,2,3-triazol-4-yl)methoxy)-3,4-dihydroquinolin-2(1H)-one], in assay [1], the activity at 10 µM came to 89% and the inhibition at 10 µM turned out to be 11%. In assay [2], the activity at 10 µM was 74% and the inhibition at 10 µM was 26%.
For `O=C1CCc2cc(OCCCN3C(=O)c4ccccc4C3=O)ccc2N1` [TR-G049, 2-(3-((2-oxo-1,2,3,4-tetrahydroquinolin-6-yl)oxy)propyl)isoindoline-1,3-dione], in assay [1], the “Cell Proliferation (%)” value is 63% and the inhibition at 10 µM turned out to be 37%. In addition, in assay [2], the “Cell Proliferation (%)” value was 76% and the inhibition at 10 µM came out at 24%.
On to `O=C(OCCCCOc1ccc2c(c1)CCC(=O)N2CCCCOC(=O)c1ccccc1)c1ccccc1` [TR-G013A, 4-(6-(4-(benzoyloxy)butoxy)-2-oxo-3,4-dihydroquinolin-1(2H)-yl)butyl benzoate], for which, in assay [1], the activity at 10 µM was found to be 53% and the inhibition at 10 µM is 47%. Besides, in assay [2], the activity at 10 µM was found to be 46% and the inhibition at 10 µM stood at 54%.
In the same order, the values of `CC(C)CCn1cc(COc2ccc3c(c2)CCC(=O)N3)nn1` [TR-G052, 6-((1-isopentyl-1H-1,2,3-triazol-4-yl)methoxy)-3,4-dihydroquinolin-2(1H)-one] are 52%, 48%, 85% and 15%.
Regarding `CC(=O)CCn1cc(COc2ccc3c(c2)CCC(=O)N3)nn1` [TR-G147, 6-((1-(3-oxobutyl)-1H-1,2,3-triazol-4-yl)methoxy)-3,4-dihydroquinolin-2(1H)-one], in assay [1], the activity at 10 µM amounted to 122% and the inhibition at 10 µM was -22%. Further, in assay [2], the activity at 10 µM was 89% and the inhibition at 10 µM stood at 11%.
Regarding `O=C1CCc2cc(OCc3cc(-c4ccc(Cl)cc4)no3)ccc2N1` [TR-G084, 6-((3-(4-chlorophenyl)isoxazol-5-yl)methxy)-3,4-dihydroquinolin-2(1H)-one], in assay [1], the “Cell Proliferation (%)” value was 71% and the inhibition at 10 µM turned out to be 30%. In assay [2], the “Cell Proliferation (%)” value was determined as 65% and the inhibition at 10 µM is 35%.
For `O=C(COc1ccc2c(c1)CCC(=O)N2)N/N=C1\C(=O)Nc2ccccc21` [TR-G038, (Z)-2-((2-oxo-1,2,3,4-tetrahydroquinolin-6-yl)oxy)-N'-(2-oxoindolin-3-ylidene)acetohydrazide], in assay [1], the activity at 10 µM stood at 95% and the inhibition at 10 µM was found to be 5%. Also, in assay [2], the activity at 10 µM was 71% and the inhibition at 10 µM worked out at 30%.
Consider “2-oxo-1,2,3,4-tetrahydroquinolin-6-yl dimethylcarbamate [TR-G005]”, for which the “Cell Proliferation (%)” value in assay [1] and in assay [2] was 77% in each case. Moreover, the “Inhibition (%)” value in assay [1] and in assay [2] was 23% each time.
Regarding `C=CCOc1ccc2c(c1)CCC(=O)N2CC=C` [TR-G014A, 1-allyl-6-(allyloxy)-3,4-dihydroquinolin-2(1H)-one], the activity at 10 µM in assay [1] came to 68%; in assay [2], 82%. Besides, the inhibition at 10 µM in assay [1] is 32%; in assay [2] it was 19%.

The term inhibition denotes the relative decrease from the control value, in per cent.
